Laboratory results as given in patent US5158958A, “Imidazo[4,5-b]quinolinyl oxy alkyl sulfonyl piperidine derivatives” (Bristol-Myers Squibb Company, priority 1992, dated 1992).
Where a name gives a salt, the structure may show the parent alone.

Assay: Aqueous solubility
Type: physicochemical
Settings: water, compounds prepared as dihydrochloride salts

SMILES	solubility [µg/mL]
O=S(=O)(CCCOc1ccc2[nH]c3nc(O)nc-3cc2c1)C1CCNCC1 [Cmpd 17a, 4-[[3-[[(2-,3-Dihydro-2-oxo-1H-imidazo[4,5-b]guinolin7-yl)oxy]propylsulfonyl]piperidinedihydrochloride]	> 10000
O=S(=O)(CCCOc1ccc2[nH]c3nc(O)nc-3cc2c1)C1CCN(Cc2ccccc2)CC1 [Cmpd 17b, 4-[[3-[2,3-Dihydro-2-oxy-1H-imidazo[4,5-b]quinolin-7-yloxy]propyl]sulfonyl]-1-(phenylmethyl)piperidine dihydrochloride]	> 10000
O=S(=O)(CCCOc1ccc2[nH]c3nc(O)nc-3cc2c1)C1CCN(CC2CCCCC2)CC1 [Cmpd 17d, 4-[[3-[2,3-Dihydro-2-oxo-1H-imidazo[4,5-b]quinolin-7-yl-oxy]propyl]sulfonyl]-(cyclohexylmethyl)piperidine dihydrochloride]	< 10000
CCC(CC)CN1CCC(S(=O)(=O)CCCOc2ccc3nc4[nH]c(=O)[nH]c4cc3c2)CC1.Cl.Cl [Cmpd 17e, 4-[[3-[2,3-Dihydro-2-oxo-1H-imidazo[4,5-b]quinolin-7yl-oxy]propyl]sulfonyl]1-(2-ethylbut-1yl)piperidine dihydrochloride]	< 10000
CC(C)CN1CCC(S(=O)(=O)CCCOc2ccc3[nH]c4nc(O)nc-4cc3c2)CC1 [Cmpd 17f, 4[[3-[2,3-Dihydro-2-oxo-1H-imidazo[4.5-b]quinolin-7yloxy]propyl]sulfonyll-1-(2-methylpropyl)piperidinedihydrochloride]	> 10000
O=S(=O)(CCCOc1ccc2[nH]c3nc(O)nc-3cc2c1)C1CCN(CCC2CCCCC2)CC1 [Cmpd 17g, 1-(2-Cyclohexylethyl)-4-[[(3-[(2,3-dihydro-2-oxo-1H-imidazo[4,5-b]quinolin-7-yloxy]propyl]sulfonyl]piperidinedihydrochloride]	< 5000
O=S(=O)(CCCOc1ccc2[nH]c3nc(O)nc-3cc2c1)C1CCN(Cc2cccc(C(F)(F)F)c2)CC1 [Cmpd 17i, 4-[3-[2,3-Dihydro-2-oxo1H-imidazo[4,5-b]quinolin-7-yl-oxy]propyl]sulfony]1-[(3-trifluoromethylhenvlmethyphenylmethyl]piperidine dihydrochloride]	< 5000
O=S(=O)(CCCCOc1ccc2[nH]c3nc(O)nc-3cc2c1)C1CCNCC1 [Cmpd 18a, 4-[[2,3-Dihydro-2-oxo-1H-imidazo[4,5-b]quinolin-7-yloxy]butyl]sulfonyl]piperidine dihydrochloride]	> 10000
O=S(=O)(CCCCOc1ccc2[nH]c3nc(O)nc-3cc2c1)C1CCN(Cc2ccc(F)cc2)CC1 [l8c, dihydrochloride]	~2000
CCC(CC)CN1CCC(S(=O)(=O)CCCCOc2ccc3[nH]c4nc(O)nc-4cc3c2)CC1 [l8e, 4[[3-[2,3-Dihydro-2-oxo-1H-imidazo[4.5-b]qouinolin-7-yloxy]butylsulfonyl]-1-(2-ethylbut-1-yl)piperidinedihydrochloride]	~5000

Now from value to compound:

solubility [µg/mL]	SMILES
> 10000	O=S(=O)(CCCOc1ccc2[nH]c3nc(O)nc-3cc2c1)C1CCN(Cc2ccc(F)cc2)CC1 [Cmpd 17c, 4-[[3-[2,3-Dihydro-2-oxo1H-imidazo[4,5-b]quinolin-7piperidinedihydrochloride]
< 5000	O=S(=O)(CCCOc1ccc2[nH]c3nc(O)nc-3cc2c1)C1CCN(CCc2ccccc2)CC1 [Cmpd 17h, 4-[[3-[2,3-Dihydro-2-oxo-1H-imidazo[4,5-b]quinolin-7-yl-oxy]propyl]sulfonyl]-b 1-(2-phenylethyl)piperidine dihydrochloride]
> 10000	O=S(=O)(CCCOc1ccc2[nH]c3nc(O)nc-3cc2c1)C1CCN(CC2CCCCO2)CC1 (stereo not drawn) [Cmpd 17k, 4[[2,3-Dihydro-2-oxo-1H-imidazo[4,5-b]quinolin-7-yl-pxy]propyl]sulfonyl]-1-[(tetrahydro-2H-pyran-2-yl)piperidine dihydrochloride]
~5000	O=S(=O)(CCCCOc1ccc2[nH]c3nc(O)nc-3cc2c1)C1CCN(Cc2ccccc2)CC1 [Cmpd 18b, 4[[3-[2,3-Dihydro-2-oxo-1H-imidazo[4,5-b]quinolin-7-yloxyl]butylsulfonyl]-1-(phenylmethyl)piperidinedihydrochloride]
~2000	O=S(=O)(CCCCOc1ccc2[nH]c3nc(O)nc-3cc2c1)C1CCN(CC2CCCCC2)CC1 [Cmpd 18d, 1-(Cyclohexylmethyl)-4-[[3-[2,3-Dihydro-2-oxo-1H-imidaxo [4,5-b]quinolin-7-yloxy]butylsulfonylpiperidinedihydrochloride]
